Patent US8053439B2, “Benzophenone derivatives useful for inhibiting formation of microtubule” (Chong Kun Dang Pharmaceutical Corp., priority 2006, dated 2011)
Read-outs that look alike come from different tables or passages of the source.

System: HL60 cells
Assay: Inhibition effect of HL60 cell line growth (MTT, 3 days)
Type: cell-based
Conditions: Homo sapiens, HL-60, 72 h, read-out: HL60 Growth Inhibition
Description: 1. Inhibition Effect of HL60 Cell Line Growth
A 10% FBS-contained RPMI1640 badge was used for culturing HL60 cells. The test substance was prepared by dissolving in DMSO to a concentration of 10 mg/ml, and continuously diluting with PBS to a final concentration of 100 μg/ml to 0.03 μg/ml. In a 96-well microplate, 180 μl of the badge containing 6.0×10^4 cells/ml of cells and 20 μl of continuously diluted test substance were added. The mixture was cultured at 37° C. with 5% CO2 atmosphere for 3 days. After completion of the cultivation, 50 μl of a solution of 1.25 mg/ml MTT (3-(4,5-dimethylthiazol-2-yl)-2,5-diphenyltetrazolium bromide) dissolved in PBS was added to all wells, and the resulting mixture was reacted at 37° C. for 3 hours. Thus formed formazan crystals were dissolved in 150 μl of DMSO, and an absorbance was measured at 570 nm.

[1] = HL60 cells, 3 days culture, MTT, absorbance 570 nm

Structure (SMILES) | IC50 [1] | IC50
CCS(=O)(=O)c1cccc(-c2ccc(C(=O)c3cc(OC)c(OC)c(OC)c3)c(-n3cncn3)c2)c1 [Compound 479, (3′-ethanesulfonyl-3-[1,2,4]triazol-1-yl-biphenyl-4-yl)(3,4,5-trimethoxyphenyl)methanone] | 25 nM | 
COc1cc(C(=O)c2ccc(-c3nccs3)cc2OS(C)(=O)=O)cc(OC)c1OC [Compound 484, methanesulfonic acid 5-(thiazol-2-yl)-2-(3,4,5-trimethoxybenzoyl)phenyl ester] | 4240 nM | 
COc1cc(C(=O)c2cc(-c3cccc(NS(C)(=O)=O)c3)ccc2F)cc(OC)c1OC [Compound 486, N-[4′-fluoro-3′-(3,4,5-trimethoxybenzoyl)-biphenyl-3-yl]-methanesulfonamide] | 160 nM | 
COc1cc(C(=O)c2ccc(-c3cccc(NS(C)(=O)=O)c3)cc2N)cc(OC)c1OC [Compound 494, N-(3′-amino-4′-(3,4,5-trimethoxybenzoyl)-biphenyl-3-yl)methanesulfonamide] | 120 nM | 
COc1cc(C(=O)c2ccc(-c3cccc(C#N)c3)cc2-n2cncn2)cc(OC)c1OC [Compound 506, 3′-[1,2,4]triazol-1-yl-4′-(3,4,5-trimethoxybenzoyl)-biphenyl-3-carbonitrile] | 160 nM | 
COc1cc(C(=O)c2ccc(-c3cccnc3)cc2-n2cncn2)cc(OC)c1OC [Compound 511, (4-pyridin-3-yl-2-[1,2,4]thiazol-1-yl-phenyl)(3,4,5-trimethoxyphenyl)methanone] |  | 100 nM
Nc1nc(-c2ccc(C(=O)c3ccccc3)c(-n3cncn3)c2)cs1 [Compound 519, (4-(2-aminothiazol-4-yl)-2-(1H-1,24-triazol-1-yl)phenyl)(phenyl)methanone] | 25000 nM | 
COc1cc(C(=O)c2ccc(-c3cccc(N)c3)cc2-n2cncn2)cc(OC)c1OC [Compound 525, (3′-amino-3-(1H-1,2,4-triazol-1-yl)biphenyl-4-yl)(3,4,5-trimethoxyphenyl)methanone] | 90 nM | 
COc1cc(C(=O)c2ccc(-c3c[nH]c(NC(C)=O)n3)cc2-n2cncn2)cc(OC)c1OC [Compound 531, N-(4-(3-(1H-1,2,4-triazol-1-yl)-4-(3,4,5-trimethoxybenzoyl)phenyl)-1H-imidazol-2-yl)acetamide] | 330 nM | 
COc1cc(C(=O)c2ccc(-c3cncs3)cc2-n2cncn2)cc(OC)c1OC [Compound 534, (4-(thiazol-5-yl)-2-(1H-1,2,4-triazol-1-yl)phenyl)(3,4,5-trimethoxyphenyl)methanone] | 60 nM | 
COc1cc(C(=O)c2ccc(-c3nccs3)cc2-n2cncn2)cc(OC)c1OC(F)F [Compound 538, (4-(difluoromethoxy)-3,5-dimethoxyphenyl)(4-(thiazol-2-yl)-2-(1H-1,2,4-triazol-1-yl)phenyl)methanone] | 280 nM | 
COc1cc(C(=O)c2ccc(-c3csc(N)n3)cc2-n2cncn2)cc(OC)c1OC(F)F [Compound 547, (4-(2-aminothiazol-4-yl)-2-(1H-1,2,4-triazol-1-yl)phenyl)(4-(difluoromethoxy)-3,5-dimethoxyphenyl)methanone] | 30 nM | 
COc1cc(C(=O)c2ccc(-c3cccc(S(N)(=O)=O)c3)cc2-n2cncn2)cc(OC)c1OC [Compound 550] | 20 nM | 
COc1cc(C(=O)c2ccc(-c3nc(CO)cs3)cc2-n2cncn2)cc(OC)c1OC [Compound 554, ((4-(4-hydroxymethyl)thiazol-2-yl)-2-(1H-1,2,4-triazol-1-yl)phenyl)(3,4,5-trimethoxyphenyl)methanone] | 90 nM | 
COc1cc(C(=O)c2ccc(-c3csc(NC(C)=O)n3)cc2-n2cncn2)cc(OC)c1OC [Compound 560, N-(4-(3-(1H-1,2,4-triazol-1-yl)-4-(3,4,5-trimethoxybenzoyl)phenyl)thiazol-2-yl)acetamide] | 90 nM | 
COC(=O)Nc1nc(-c2ccc(C(=O)c3cc(OC)c(OC)c(OC)c3)c(-n3cncn3)c2)cs1 [Compound 561, methyl 4-(3-(1H-1,2,4-triazol-1-yl)-4-(3,4,5-trimethoxybenzoyl)phenyl)thiazol-2-yl carbamate] | 320 nM | 
COc1cc(C(=O)c2ccc(-c3cscn3)cc2-n2cncn2)cc(OC)c1OC [Compound 562, (4-(thiazol-4-yl)-2-(1H-1,2,4-triazol-1-yl)phenyl)(3,4,5-trimethoxyphenyl)methanone] |  | 80 nM
COc1cc(C(=O)c2ccc(-c3csc(C(C)(C)O)n3)cc2-n2cncn2)cc(OC)c1OC [Compound 563, (4-(2-(2-hydroxypropan-2-yl)thiazol-4-yl)-2-(1H-1,2,4-triazol-1-yl)phenyl)(3,4,5-trimethoxyphenyl)methanone] | 250 nM | 

Structure (SMILES) | IC50 [1] | IC50
COc1cc(C(=O)c2ccc(-c3csc(CO)n3)cc2-n2cncn2)cc(OC)c1OC [Compound 564, (4-(2-(hydroxymethyl)thiazol-4-yl)-2-(1H-1,2,4-triazol-1-yl)phenyl)(3,4,5-trimethoxyphenyl)methanone] | 90 nM | 
COc1cc(C(=O)c2cccc(-c3ccsc3)c2)cc(OC)c1OC [Compound 568, (3-(thiophen-3-yl)phenyl)(3,4,5-trimethoxyphenyl)methanone] | 360 nM | 
COc1cc(C(=O)c2cccc(-c3csc(N)n3)c2)cc(OC)c1OC [Compound 570, (3-(2-aminothiazol-4-yl)phenyl)(3,4,5-trimethoxyphenyl)methanone] | 120 nM | 
COc1cc(C(=O)c2ccc(-c3csc(N)n3)cc2)cc(OC)c1OC [Compound 571, (4-(2-aminothiazol-4-yl)phenyl)(3,4,5-trimethoxyphenyl)methanone] | 110 nM | 
COc1cc(C(=O)c2cccc(-c3nccs3)c2)cc(OC)c1OC [Compound 581] | 40 nM | 
COc1ccc(-c2nccs2)cc1C(=O)c1cc(OC)c(OC)c(OC)c1 [Compound 583, (2-methoxy-5-(thiazol-2-yl)phenyl)(3,4,5-trimethoxyphenyl)methanone] |  | 10 nM
COc1cc(C(=O)c2cccc(-c3ncco3)c2)cc(OC)c1OC [Compound 587, (3-(oxazol-2-yl)phenyl)(3,4,5-trimethoxyphenyl)methanone] | 40 nM | 
COc1ccc(-c2ccsc2)cc1C(=O)c1cc(OC)c(OC)c(OC)c1 [Compound 588, (2-methoxy-5-(thiophen-3-yl)phenyl)(3,4,5-trimethoxyphenyl)methanone] | 120 nM | 
COc1ccc(-c2ncco2)cc1C(=O)c1cc(OC)c(OC)c(OC)c1 [Compound 590, (2-methoxy-5-(oxazol-2-yl)phenyl)(3,4,5-trimethoxyphenyl)methanone] |  | 10 nM
COc1cc(C(=O)c2cccc(-c3ccc[nH]3)c2)cc(OC)c1OC [Compound 591, (3-(1H-pyrrol-2-yl)phenyl)(3,4,5-trimethoxyphenyl)methanone] | 200 nM | 
COc1ccc(-c2cccs2)cc1C(=O)c1cc(OC)c(OC)c(OC)c1 [Compound 594, (2-methoxy-5-(thiophen-2-yl)phenyl)(3,4,5-trimethoxyphenyl)methanone] | 120 nM | 
COc1ccc(-c2csc(C)n2)cc1C(=O)c1cc(OC)c(OC)c(OC)c1 [Compound 595, (2-methoxy-5-(methylthiazol-4-yl)phenyl)(3,4,5-trimethoxyphenyl)methanone] | 120 nM | 
COc1cc(C(=O)c2cc(-c3csc(C)n3)ccc2-n2cncn2)cc(OC)c1OC [Compound 596, (5-(2-methylthiazol-4-yl)-2-(1H-1,2,4-triazol-1-yl)phenyl)(3,4,5-trimethoxyphenyl)methanone] | 230 nM | 
COc1cc(C(=O)c2cc(-c3ccc[nH]3)ccc2N)cc(OC)c1OC [Compound 597, (2-amino-5-(1H-pyrrol-2-yl)phenyl)(3,4,5-trimethoxyphenyl)methanone] | 220 nM | 
COc1ccc(-c2ccn[nH]2)cc1C(=O)c1cc(OC)c(OC)c(OC)c1 [Compound 598, (2-methoxy-5-(1H-pyrazol-5-yl)phenyl)(3,4,5-trimethoxyphenyl)methanone] | 390 nM | 
COc1cc(C(=O)c2ccc(-c3ccc[nH]3)cc2-n2cncn2)cc(OC)c1OC [Compound 599, (4-(1H-pyrrol-2-yl)-2-(1H-1,2,4-triazol-1-yl)phenyl)(3,4,5-trimethoxyphenyl)methanone] | 140 nM | 
COc1cc(C(=O)c2cc(-c3nccs3)ccc2O)cc(OC)c1OC [Compound 601, (2-hydroxy-5-(thiazol-2-yl)phenyl)(3,4,5-trimethoxyphenyl)methanone] | 90 nM | 
COc1cc(C(=O)c2ccc(-c3ncco3)cc2-n2cncn2)cc(OC)c1OC [Compound 602, (4-(oxazol-2-yl)-2-(1H-1,2,4-triazol-1-yl)phenyl)(3,4,5-trimethoxyphenyl)methanone] | 170 nM | 
